ChEMBL document CHEMBL5727197, “Bicyclic urea, thiourea, guanidine and cyanoguanidine compounds useful for the treatment of pain” (2019)

Each molecule was assayed against High affinity nerve growth factor receptor (Homo sapiens, UniProt P04629) (assay: Kinase Binding Assay: TrkA binding activity was determined in a TrkA LanthaScreen™ Eu Kinase Binding Assay. 5 nM His-tagged recombinant human TrkA (6HIS tagged cytoplasmic domain from Invitrogen, Catalog No. PV3144) was incubated with 4 nM Alexa-Fluor® Tracer 236 (Invitrogen Cat. No. PV5592), 2 nM biotinylated anti-His (Invitrogen Cat. No. PV6090), and 2 nM europium-labeled Streptavidin (Invitrogen Cat. No. PV5899), in buffer (25 mM MOPS, pH 7.5, 5 mM MgCl2, 0.005% Triton X-100). Three fold serial dilutions of compounds of the invention in DMSO were added to a final percentage of 2% DMSO. After 60-minute incubation at 22° C., the reaction was measured using the EnVision mutlimode plate reader (PerkinElmer) via TR-FRET dual wavelength detection at […]. The percent of control was calculated using a ratiometric emission factor.).
High affinity nerve growth factor receptor, sequence (P04629 whole entry, the tested form may be a part): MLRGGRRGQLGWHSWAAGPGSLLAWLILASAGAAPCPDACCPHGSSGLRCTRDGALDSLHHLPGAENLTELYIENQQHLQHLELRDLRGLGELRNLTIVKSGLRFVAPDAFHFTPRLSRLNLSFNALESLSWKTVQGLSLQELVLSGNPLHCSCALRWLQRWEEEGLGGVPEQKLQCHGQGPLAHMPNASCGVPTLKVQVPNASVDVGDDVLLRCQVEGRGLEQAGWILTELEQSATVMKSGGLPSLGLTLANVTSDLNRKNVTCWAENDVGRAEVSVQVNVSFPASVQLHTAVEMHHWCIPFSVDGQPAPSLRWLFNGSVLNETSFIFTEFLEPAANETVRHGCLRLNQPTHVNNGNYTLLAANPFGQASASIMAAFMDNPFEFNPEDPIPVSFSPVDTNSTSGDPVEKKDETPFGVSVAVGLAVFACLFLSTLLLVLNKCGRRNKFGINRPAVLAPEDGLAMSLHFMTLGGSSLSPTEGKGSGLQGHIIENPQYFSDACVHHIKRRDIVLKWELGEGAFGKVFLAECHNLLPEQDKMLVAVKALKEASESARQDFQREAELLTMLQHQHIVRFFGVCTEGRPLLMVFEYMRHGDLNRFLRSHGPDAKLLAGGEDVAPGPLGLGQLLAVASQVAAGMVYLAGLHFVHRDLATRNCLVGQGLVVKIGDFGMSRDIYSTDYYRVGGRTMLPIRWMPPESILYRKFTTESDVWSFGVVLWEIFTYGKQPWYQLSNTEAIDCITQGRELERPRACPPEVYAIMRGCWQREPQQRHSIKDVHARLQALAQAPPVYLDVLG

Row | IC50 [nM] | SMILES
1 | < 100 | CC1(C)C[C@@H](O)[C@H](NC(=O)Nc2c3c(nn2-c2ccccc2)COC3)c2ccccc21 (relative stereo)
2 | < 100 | Cc1c(-c2ccc(=O)n(C)c2)nn(-c2ccccc2)c1NC(=O)NC1CN(CC(F)(F)F)Cc2ccccc21 (stereo not drawn)
3 | < 100 | CC(C)(C)OC(=O)N1CCO[C@@H](COc2nn(-c3ccccc3)c(NC(=O)N[C@@H]3c4ccccc4C4(CC4)[C@H]3O)c2Cl)C1
